Reference: patent publication US8110365B2, “Compositions and methods for detecting and treating renal injury and inflammation” (Rhode Island Hospital, priority 2006, dated 2012)
Entries after “also recorded” stand apart in the source; their conditions may differ.

Tests used:
E-selectin = test: TNF-α induced E-selectin expression in HUVEC; format: cell-based, human
endothelial cells = test: Monocyte adhesion to TNF-α-activated endothelial monolayers; format: cell-based, human
MCP-1 and RANTES [1] = test: TNF-α induced chemokine (MCP-1, RANTES) expression in HKC cells; format: cell-based, human
Description: In certain embodiments, Enzyme-linked Immunosorbent assay (ELISA) is used to evaluate GSK3b proten level. For example, rat kidneys were homogenized in RIPA [1% Nonidet P-40, 0.1% SDS, 100ug/ml phenylmethysulfonyl fluoride (PMSF), 0.5% sodium deoxycholate, 1 mM sodium orthovanadate, 2 ug/ml aprotin, 2 ug/ml leupeptin, 5 mM EDTA in PBS] buffer. Chemokine levels in homogenates of equal amounts of total protein were measured using specific sandwich enzyme immunometric assay kits for rat. Chemokines in conditioned media from HKC were determined by specific sandwich ELISA kits for human (R&D Systems) according to the manufacturer's instructions. Results were normalized for protein amounts in kidney homogenates, or for cell number in cultures.
Human proximal TEC (HKC-8) (courtesy of Dr. L. Racusen of John Hopkins University, Baltimore, Md.) were maintained in Dulbecco's modified Eagle's medium (DMEM)/F12 supplemented with 5% fetal bovine serum (FBS). Cells were plated at approximately 70% confluence in the media containing 5% FBS for 24 h and then underwent serum starvation for another 24 h. Human recombinant HGF and human recombinant TNF-α (R&D systems, Minneapolis, Minn.) were added to the culture with fresh serum-free medium at a final concentration of 20 ng/ml and 2 ng/ml respectively, or otherwise as indicated. Cell viability was assessed by Trypan blue exclusion. At different time points, cells and conditioned media were harvested for further investigation.

remnant kidney rats = test: Rat remnant kidney model (5/6 nephrectomy); format: in vivo; settings: for inflammation and injury in remnant kidneys: rats, treatment for 2 wk beginning 2 wk after nephrectomy
From the text: We examined the molecular mechanism of HGF's anti-inflammatory actions in a model of CKD. Beginning 2 wk after ⅚^th nephrectomy, rats received exogenous HGF, neutralization of endogenous HGF by daily injection of an anti-HGF antibody, or preimmune IgG for 2 wk. […] There were parallel alterations in endothelial activation and inflammation, marked by de novo E-selectin expression and leukocyte adhesion to renal vascular endothelium. […] Thus, the GSK3b inhibitor HGF has direct anti-inflammatory effects via suppression of NF-KB and endothelial inflammation.

NF-κB [2] = test: NF-κB luciferase reporter gene assay in endothelial cells; format: cell-based, human; settings: 24 h
Description: To explore the role of GSK3b in HGF suppression of inflammation, we examined the effect of HGF on NF-κB activation in endothelial cells (FIG. 8A˜C) and TEC (FIG. 8D). […] (FIG. 8A). To determine whether HGF modulation of NF-κB transcriptional activity alters target gene (E-selectin) levels, DNA affinity precipitation assay was carried out at 4 h after treatment. Proteins in cell lysates were pulled down by biotin labeled oligonucleotides with the sequence of the E-selectin promoter region spanning the κB elements. […] To further examine the effect of HGF on NF-κB binding to the E-selectin gene in vivo, chromatin immunoprecipitation (ChIP) was applied at 4 h after treatments (FIG. 8C).

NF-κB [3] = test: Gel shift assay of HKC nuclear extract with NF-κB consensus sequence; format: cell-based, human; settings: HKC cells, 4 h
MCP-1 and RANTES [4] = test: Chemokine expression in immortalized rat proximal tubular cells (IRPTC); format: cell-based
[5] = test system: phosphatidylinositol 3-kinase (PI3K)-Akt; test: PI3K-Akt activation in HUVEC; format: cell-based, human
GSK3b [6] = target: T1, GSK3b (Rattus norvegicus, UniProt P18266); test: Renal GSK3b expression in the kidney; format: in vivo
T1 construct: from tissue; host or cells: rat kidney (homogenate)
T1 sequence (P18266 whole entry): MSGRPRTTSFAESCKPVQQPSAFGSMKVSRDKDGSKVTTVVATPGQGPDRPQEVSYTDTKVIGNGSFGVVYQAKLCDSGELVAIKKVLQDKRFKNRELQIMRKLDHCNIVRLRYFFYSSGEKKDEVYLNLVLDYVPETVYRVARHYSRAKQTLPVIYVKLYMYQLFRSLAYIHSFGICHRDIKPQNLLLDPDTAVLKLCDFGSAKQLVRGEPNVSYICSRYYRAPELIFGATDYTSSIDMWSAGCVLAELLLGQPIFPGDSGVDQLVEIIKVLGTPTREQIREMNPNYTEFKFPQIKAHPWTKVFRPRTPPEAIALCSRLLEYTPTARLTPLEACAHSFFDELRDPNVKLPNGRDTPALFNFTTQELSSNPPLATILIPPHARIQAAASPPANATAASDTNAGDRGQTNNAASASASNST
Description: In certain embodiments, measurement of GSK level and activity in tissue samples is carried out as follows. Total expression of GSK3b, is measured by western immunoblot in kidney homogenates using a commercially available mouse monoclonal antibody against rat GSK3b (Santa Cruz Biotechology). Densitometric analysis of immunoblot bands is used to compare protein abundance of GSK3b in remnant kidneys and controls at each time point.

NF-kB and IkB = NF-kB and IkB phosphorylation and IkB degradation in endothelial cells; format: cell-based
Description: In certain embodiments, NF-kB p65 phosphorylation is assessed as follows. Cell lysates with equal amounts of total protein are immunoblotted for phosphorylated NF-kB p65 or total p65. Anti-phosphorylated NF-kB p65 antibody is commercially available, e.g., from Cell Signaling, MA. Densitometric results of phosphorylated NF-kB p65 and total p65 bands as well as the ratio of pp65/p65 are compared between different transfections at different time points.
In certain embodiments, IkB phosphorylation and degradation is evaluated as follows. Cell lysates with equal amounts of total protein are immunoblotted for phosphorylated IkBa (anti-phosphorylated IkBa antibody is available from Cell Signaling. MA) or total IkBa. Densitometric results of phosphorylated IkBa and total IkBa bands are compared across the different treatments and time points.

GSK3b [7] = target: GSK3b (Homo sapiens, UniProt P49841); test: Inhibitory phosphorylation of GSK3b in HUVEC (immunoblot); format: cell-based; design: endogenous in cells; settings: LiCl 20 mM, HGF 100 ng/ml
Sequence of GSK3b (Homo sapiens, UniProt P49841) (P49841 whole entry): as the sequence (P18266 whole entry) above, with M240V, P390T, A392T, T400A, A402T counted along it

renal GSK3b expression (GSK3b [6]): markedly decreased GSK3b expression
Substance: HGF: Human recombinant HGF (R&D systems); induces inhibitory phosphorylation of GSK3b
HGF inhibition of TNF-a induced E-selectin expression (E-selectin; HUVEC expressing uninhibitable mutant S9A-GSK3b): abolished HGF suppression of E-selectin; also recorded: abolished the suppressive action of HGF; also recorded: abolishes HGF inhibition of endothelial E-selectin | HGF inhibition of TNF-a induced E-selectin expression (E-selectin; HUVEC transfected with pcDNA3 or HA-WT-GSK3b): HGF inhibition of E-selectin expression was evident | TNF-α induced E-selectin expression (E-selectin; HUVEC, lithium 20 mM, HGF 100 ng/ml, TNF-a 0.5 ng/ml): suppressed endothelial expression of E-selectin; also recorded: suppressed TNF-α-induced expression of E-selectin; also recorded: attenuates TNF-α elicited E-selectin expression; also recorded: attenuates TNF-a (0.5 ng/ml) elicited E-selectin expression | monocytic adhesion to endothelial cells (endothelial cells): abrogated monocyte adhesion to TNF-α-activated endothelial monolayers; also recorded: inhibited E-selectin mediated monocytic adhesion to endothelial cells | HGF inhibition of chemokine (RANTES, MCP-1) expression (MCP-1 and RANTES [1]; HKC cells expressing uninhibitable mutant S9A-GSK3b): abolished HGF inhibition of basal and TNF-α stimulated RANTES expression; also recorded: abolished HGF suppression of E-selectin; also recorded: abolishes HGF's inhibitory effect | HGF inhibition of chemokine (RANTES, MCP-1) expression (MCP-1 and RANTES [1]; HKC cells transfected with pcDNA3 or WT-GSK3b): did not alter the inhibitory action of HGF on RANTES; also recorded: HGF inhibition of chemokine expression was evident | basal and TNF-α induced chemokine (RANTES, MCP-1) expression (MCP-1 and RANTES [1]; HKC cells, lithium 20 mM, HGF 20 ng/ml, TNF-a 2 ng/ml): suppresses basal and TNF-α-induced expression of RANTES in a time and dose dependent fashion; also recorded: suppressed MCP-1 and RANTES in a time and dose dependent manner; also recorded: blocked this induction; also recorded: attenuates TNF-α elicited chemokine expression; also recorded: attenuates TNF-a (2 ng/ml) elicited chemokine expression | sequestration of circulating macrophages in the remnant kidney (remnant kidney rats; exogenous HGF): markedly diminished sequestration of circulating macrophages in the remnant kidney | inflammation and injury in remnant kidneys (remnant kidney rats): ameliorated; also recorded: reduces inflammatory infiltration, tubular and glomerular injury | inflammation and injury in remnant kidneys (remnant kidney rats; listed as hepatocyte growth factor): profoundly ameliorating gross renal inflammation | expression of metalloproteinase-9 (MMP-9) (remnant kidney rats; remnant kidney rats): increasing expression of metalloproteinase-9 (MMP-9) | expression of transforming growth factor-beta (TGF-β) (remnant kidney rats; remnant kidney rats): did not reduce expression of transforming growth factor-beta (TGF-β) | levels of PAI-1 and TIMP-1 (remnant kidney rats; remnant kidney rats): decreasing levels of plasminogen activator inhibitor-1 (PAI-1) and tissue inhibitor of metalloproteinase-1 (TIMP-1) | renal / tubular expression of proinflammatory molecules (MCP-1, RANTES, E-selectin) (remnant kidney rats; remnant kidney rats): decreased staining to normal | interstitial injury (remnant kidney rats; remnant kidney rats with established renal injury): reduced interstitial injury | decrease of interstitial macrophages (remnant kidney rats; remnant kidney rats, continuous infusion for two weeks): more than 50% | renal / tubular expression of proinflammatory molecules (MCP-1, RANTES, E-selectin) (remnant kidney rats; remnant kidney rats, listed as hepatocyte growth factor): reduced renal expression of proinflammatory molecules such as RANTES, and E-selectin | TNF-α induced NF-κB reporter gene (transcription) activity (NF-κB [2]): suppressed TNF-a induced NF-kB reporter gene activity; also recorded: significantly reduced TNF-α induced NF-κB transcription activity; also recorded: blunts NF-kB activation | TNF-α induced binding of nuclear extract to NF-κB consensus oligonucleotides (NF-κB [3]): markedly blunted by HGF; also recorded: attenuated by HGF | basal and TNF-α induced expression of MCP-1 and RANTES (MCP-1 and RANTES [4]): suppressed basal and TNF-α induced expression of MCP-1 and RANTES | PI3K-Akt activation [5]: activated phosphatidylinositol 3-kinase (PI3K)-Akt | NF-kB and IkB phosphorylation and IkB degradation (NF-kB and IkB): inhibition of NF-kB and IkB phosphorylation and IkB degradation | inhibitory phosphorylation of GSK3b at serine 9 (GSK3b [7]): inhibited its downstream transducer, GSK-3b, by phosphorylation at serine-9; also recorded: inactivates GSK3b by inhibitory phosphorylation at ser-9; also recorded: induces inhibitory phosphorylation of GSK3b
